In brackets after ≈: the same amount, converted by molar mass. Where two headings read alike, the source gives them in different places.
Legend:
[1] = Phase 1a multiple ascending dose study (oral solution): plasma pharmacokinetics; type: in vivo, human; conditions: human, plasma, oral; for concentration at 0.5 h: Hour 0.5; for concentration at 0.5 h / concentration at 1 h / concentration at 3 h / concentration at 4 h / concentration at 6 h / concentration at 8 h / concentration at 12 h / concentration at 16 h / concentration at 24 h / concentration at 2 h: read-out: Compound 1 concentration, Conc (SD); for concentration at 1 h: Hour 1; for concentration at 3 h: Hour 3; for concentration at 4 h: Hour 4; for concentration at 6 h: Hour 6; for concentration at 8 h: Hour 8; for concentration at 12 h: Hour 12; for concentration at 16 h: Hour 16; for concentration at 24 h: Hour 24; for AUC: read-out: AUC(0-τ), mean (SD); for concentration at 2 h: Hour 2; for AUC(0-t): read-out: AUC(0-t), mean; for Tmax: read-out: Tmax, median (range)
Protocol: Compound 1 was administered as the HCl-salt (prepared analogously to Example 2.1).
The secondary objective was to characterize the multiple dose pharmacokinetic (PK) parameters of Compound 1, after ascending doses. Secondary endpoints included determination of PK parameters in plasma and urine, fecal excretion and assessment of colonic biopsy samples.
Blood samples were collected at the following time points relative to dose administration on Day 1 and Day 7: pre-dose; 0.5, 1, 2, 3, 4, 6, 8, 12, 16 and 24 hours post dose. Analysis and concentration determinations were performed using a liquid chromatography-mass spectrometry and liquid chromatography-tandem mass spectrometry (LC/MS/MS) method.

[2] = tested on: EPO or VEGF; test: Phase 1a multiple dose tablet study (Example 26): EPO and VEGF change from baseline to Day 7; design: species or system human; conditions: in vivo
[3] = Compound 1 pH-solubility at 22° C.; type: physicochemical; conditions: for solubility: aqueous buffer, thermodynamic from solid
Excerpt: The solubility of Compound 1 at various pH's was investigated.

[4] = 120 mg, Cohort 2, 120 mg, Day 1
[5] = 120 mg, Cohort 4, 120 mg once daily, Day 7
[6] = 120 mg, Cohort 4, 120 mg, Day 1
[7] = 240 mg, Cohort 3, 240 mg once daily, Day 7
[8] = 240 mg, Cohort 3, 240 mg, Day 1

Question: For `CC(C)(C)OC(=O)N1CCN(Cc2ccn(Cc3ccc(Cl)cc3)c(=O)c2O)CC1` [Compound 1, tert-butyl 4-((1-(4-chlorobenzyl)-3-hydroxy-2-oxo-1,2-dihydropyridin-4-yl)methyl)piperazine-1-carboxylate], which concentration at 0.5 h [1, 4] is on record?
Answer: The concentration at 0.5 h was 9.54 ng/mL.

Question: What about the concentration at 1 h [1, 4] of the same compound?
Answer: The concentration at 1 h was 6.08 ng/mL.

Question: What about the concentration at 3 h [1, 4] of the same compound?
Answer: The concentration at 3 h was 1.95 ng/mL.

Question: What about the concentration at 4 h [1, 4] of the same compound?
Answer: The concentration at 4 h was 0 ng/mL.

Question: And the concentration at 6 h [1, 4]?
Answer: Its concentration at 6 h is 0 ng/mL.

Question: And the concentration at 8 h [1, 4]?
Answer: The concentration at 8 h was 0 ng/mL.

Question: What about the concentration at 12 h [1, 4] of the same compound?
Answer: The concentration at 12 h was 0 ng/mL.

Question: And the concentration at 16 h [1, 4]?
Answer: Its concentration at 16 h is 0 ng/mL.

Question: What about the concentration at 24 h [1, 4] of the same compound?
Answer: Its concentration at 24 h is 0 ng/mL.

Question: What about the AUC [1, 4] of the same compound?
Answer: Its AUC is 0.0279 µg·h/mL.

Question: What about the Cmax ([1]; 120 mg, Cohort 2, 120 mg, Day 1, read-out: Cmax, mean (SD)) of the same compound?
Answer: The Cmax was 9.54 ng/mL.

Question: What about the concentration at 0.5 h [1, 5] of the same compound?
Answer: The concentration at 0.5 h was 15.6 ng/mL.

Question: And the concentration at 1 h [1, 5]?
Answer: The concentration at 1 h was 9.34 ng/mL.

Question: What about the concentration at 2 h [1, 5] of the same compound?
Answer: The concentration at 2 h was 5.32 ng/mL.

Question: What about the concentration at 3 h [1, 5] of the same compound?
Answer: Its concentration at 3 h is 3.69 ng/mL.

Question: What about the concentration at 4 h [1, 5] of the same compound?
Answer: Its concentration at 4 h is 2.98 ng/mL.

Question: And the concentration at 6 h [1, 5]?
Answer: Its concentration at 6 h is 3.3 ng/mL.

Question: And the concentration at 8 h [1, 5]?
Answer: The concentration at 8 h was 3.03 ng/mL.

Question: And the concentration at 12 h [1, 5]?
Answer: Its concentration at 12 h is 2.59 ng/mL.

Question: What about the concentration at 16 h [1, 5] of the same compound?
Answer: Its concentration at 16 h is 2.26 ng/mL.

Question: And the concentration at 24 h [1, 5]?
Answer: Its concentration at 24 h is 1.92 ng/mL.

Question: And the AUC(0-t) [1, 5]?
Answer: The AUC(0-t) was 0.0758 µg·h/mL.

Question: What about the Cmax ([1]; 120 mg, Cohort 4, 120 mg once daily, Day 7, read-out: Cmax, mean) of the same compound?
Answer: Its Cmax is 15.6 ng/mL.

Question: What about the concentration at 0.5 h [1, 6] of the same compound?
Answer: Its concentration at 0.5 h is 11.9 ng/mL.

Question: And the concentration at 1 h [1, 6]?
Answer: The concentration at 1 h was 8.03 ng/mL.

Question: And the concentration at 3 h [1, 6]?
Answer: The concentration at 3 h was 2.68 ng/mL.

Question: What about the concentration at 4 h [1, 6] of the same compound?
Answer: The concentration at 4 h was 1.48 ng/mL.

Question: And the concentration at 6 h [1, 6]?
Answer: Its concentration at 6 h is 1.14 ng/mL.

Question: What about the concentration at 8 h [1, 6] of the same compound?
Answer: The concentration at 8 h was 0 ng/mL.

Question: And the concentration at 12 h [1, 6]?
Answer: Its concentration at 12 h is 0 ng/mL.

Question: And the concentration at 16 h [1, 6]?
Answer: The concentration at 16 h was 0 ng/mL.

Question: And the concentration at 24 h [1, 6]?
Answer: The concentration at 24 h was 0 ng/mL.

Question: What about the AUC [1, 6] of the same compound?
Answer: Its AUC is 0.0381 µg·h/mL.

Question: And the Cmax ([1]; 120 mg, Cohort 4, 120 mg, Day 1, read-out: Cmax, mean (SD))?
Answer: Its Cmax is 12 ng/mL.

Question: And the concentration at 0.5 h [1, 7]?
Answer: The concentration at 0.5 h was 28.5 ng/mL.

Question: And the concentration at 1 h [1, 7]?
Answer: Its concentration at 1 h is 20.5 ng/mL.

Question: And the concentration at 2 h [1, 7]?
Answer: Its concentration at 2 h is 10.3 ng/mL.

Question: What about the concentration at 3 h [1, 7] of the same compound?
Answer: Its concentration at 3 h is 7.61 ng/mL.

Question: What about the concentration at 4 h [1, 7] of the same compound?
Answer: Its concentration at 4 h is 6.99 ng/mL.

Question: What about the concentration at 6 h [1, 7] of the same compound?
Answer: Its concentration at 6 h is 6.8 ng/mL.

Question: What about the concentration at 8 h [1, 7] of the same compound?
Answer: Its concentration at 8 h is 6.44 ng/mL.

Question: What about the concentration at 12 h [1, 7] of the same compound?
Answer: The concentration at 12 h was 4.66 ng/mL.

Question: What about the concentration at 16 h [1, 7] of the same compound?
Answer: Its concentration at 16 h is 3.27 ng/mL.

Question: What about the concentration at 24 h [1, 7] of the same compound?
Answer: Its concentration at 24 h is 2.53 ng/mL.

Question: What about the AUC(0-t) [1, 7] of the same compound?
Answer: The AUC(0-t) was 0.139 µg·h/mL.

Question: And the Cmax ([1]; 240 mg, Cohort 3, 240 mg once daily, Day 7, read-out: Cmax, mean)?
Answer: The Cmax was 28.8 ng/mL.

Question: And the concentration at 0.5 h [1, 8]?
Answer: The concentration at 0.5 h was 25.7 ng/mL.

Question: And the concentration at 1 h [1, 8]?
Answer: The concentration at 1 h was 15 ng/mL.

Question: And the concentration at 3 h [1, 8]?
Answer: Its concentration at 3 h is 5.97 ng/mL.

Question: And the concentration at 4 h [1, 8]?
Answer: Its concentration at 4 h is 4.12 ng/mL.

Question: What about the concentration at 6 h [1, 8] of the same compound?
Answer: The concentration at 6 h was 3.39 ng/mL.

Question: What about the concentration at 8 h [1, 8] of the same compound?
Answer: Its concentration at 8 h is 3.02 ng/mL.

Question: What about the concentration at 12 h [1, 8] of the same compound?
Answer: Its concentration at 12 h is 3.13 ng/mL.

Question: What about the concentration at 16 h [1, 8] of the same compound?
Answer: Its concentration at 16 h is 2.25 ng/mL.

Question: And the concentration at 24 h [1, 8]?
Answer: Its concentration at 24 h is 1.35 ng/mL.

Question: And the AUC [1, 8]?
Answer: Its AUC is 0.0915 µg·h/mL.

Question: What about the Cmax ([1]; 240 mg, Cohort 3, 240 mg, Day 1, read-out: Cmax, mean (SD)) of the same compound?
Answer: Its Cmax is 25.7 ng/mL.

Question: And the Tmax ([1]; Cohort 2, 120 mg, Day 1)?
Answer: Its Tmax is 30 min.

Question: What about the Tmax ([1]; Cohort 3, 240 mg, Day 1) of the same compound?
Answer: Its Tmax is 30 min.

Question: What about the Tmax ([1]; Cohort 5, 60 mg, Day 1) of the same compound?
Answer: The Tmax was 30 min.

Question: And the “Effects on EPO or VEGF from baseline to Day 7 compared to placebo” value [2]?
Answer: Its value is “no consistent or dose-related effects”.

Question: What about the solubility ([3]; TRIS buffer, pH 8 (TRIS 25 mM, l = 0.1), pH 8.0, 22° C.) of the same compound?
Answer: The solubility was 0.69 µg/mL (≈ 1.59 µM).

Question: And the “Solubility (in words)” value ([3]; above pH 4)?
Answer: The value was “practically insoluble”.

Question: And the solubility ([3]; 0.1M NaOH, pH 12.6, 22° C.)?
Answer: Its solubility is 890 µg/mL (≈ 2050 µM).

Question: What about the “Solubility (in words)” value ([3]; at pH 1) of the same compound?
Answer: Its value is “soluble”.

Question: What about the “Solubility (in words)” value ([3]; at pH 6.8) of the same compound?
Answer: Its value is “totally insoluble”.

Question: What about the solubility ([3]; citrate buffer, pH 3 (Citrate 25 mM, l = 0.1), pH 2.9, 22° C.) of the same compound?
Answer: Its solubility is 570 µg/mL (≈ 1310 µM).

Question: And the solubility ([3]; citrate buffer, pH 4 (Citrate 25 mM, l = 0.1), pH 3.9, 22° C.)?
Answer: The solubility was 94 µg/mL (≈ 217 µM).

Question: And the solubility ([3]; citrate buffer, pH 5 (Citrate 25 mM, l = 0.1), pH 5.0, 22° C.)?
Answer: The solubility was 9.8 µg/mL (≈ 22.6 µM).

Question: And the solubility ([3]; glycine buffer, pH 10 (Glycine 25 mM, l = 0.1), pH 9.9, 22° C.)?
Answer: The solubility was 9.9 µg/mL (≈ 22.8 µM).

Question: And the solubility ([3]; phosphate buffer, pH 6.5 (Phosphate 25 mM, l = 0.1), pH 6.5, 22° C.)?
Answer: Its solubility is 1 µg/mL (≈ 2.3 µM).

Reference: US20220175766A1, “COMPOSITIONS AND METHODS OF TREATMENT” (GB004, Inc., priority 2019, published 2022)
